In BindingDB's records for doi:10.1021/jm7012858 (Wyeth Research, 2008) one finds IC50 data, which are given here for 8 molecules.

The target in one assay is Phosphatidylinositol 3-kinase regulatory subunit alpha/4,5-bisphosphate 3-kinase catalytic subunit alpha isoform (Homo sapiens, UniProt P42336). In words: PI3K Inhibition Assay.
Phosphatidylinositol 3-kinase regulatory subunit alpha/4,5-bisphosphate 3-kinase catalytic subunit alpha isoform, sequence (P27986 whole entry, canonical isoform): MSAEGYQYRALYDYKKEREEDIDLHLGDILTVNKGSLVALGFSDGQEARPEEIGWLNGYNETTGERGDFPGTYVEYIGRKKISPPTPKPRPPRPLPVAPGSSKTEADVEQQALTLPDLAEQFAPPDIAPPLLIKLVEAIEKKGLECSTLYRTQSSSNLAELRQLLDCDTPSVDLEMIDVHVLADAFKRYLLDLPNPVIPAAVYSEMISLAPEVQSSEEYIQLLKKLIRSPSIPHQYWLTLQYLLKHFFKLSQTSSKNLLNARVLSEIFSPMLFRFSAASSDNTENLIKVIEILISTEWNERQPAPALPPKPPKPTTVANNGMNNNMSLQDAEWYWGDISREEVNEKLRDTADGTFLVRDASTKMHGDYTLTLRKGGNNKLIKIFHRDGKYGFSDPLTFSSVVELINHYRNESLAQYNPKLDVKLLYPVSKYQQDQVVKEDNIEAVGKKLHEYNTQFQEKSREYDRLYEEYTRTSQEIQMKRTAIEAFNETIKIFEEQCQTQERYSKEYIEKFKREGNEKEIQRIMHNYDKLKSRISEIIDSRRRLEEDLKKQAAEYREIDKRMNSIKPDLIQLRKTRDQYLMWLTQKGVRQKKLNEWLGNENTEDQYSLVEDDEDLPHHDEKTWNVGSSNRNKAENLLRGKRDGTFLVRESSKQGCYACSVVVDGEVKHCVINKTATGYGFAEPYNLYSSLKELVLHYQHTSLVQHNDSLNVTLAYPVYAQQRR
Phosphatidylinositol 3-kinase regulatory subunit alpha/4,5-bisphosphate 3-kinase catalytic subunit alpha isoform, sequence (P42336 whole entry, canonical isoform): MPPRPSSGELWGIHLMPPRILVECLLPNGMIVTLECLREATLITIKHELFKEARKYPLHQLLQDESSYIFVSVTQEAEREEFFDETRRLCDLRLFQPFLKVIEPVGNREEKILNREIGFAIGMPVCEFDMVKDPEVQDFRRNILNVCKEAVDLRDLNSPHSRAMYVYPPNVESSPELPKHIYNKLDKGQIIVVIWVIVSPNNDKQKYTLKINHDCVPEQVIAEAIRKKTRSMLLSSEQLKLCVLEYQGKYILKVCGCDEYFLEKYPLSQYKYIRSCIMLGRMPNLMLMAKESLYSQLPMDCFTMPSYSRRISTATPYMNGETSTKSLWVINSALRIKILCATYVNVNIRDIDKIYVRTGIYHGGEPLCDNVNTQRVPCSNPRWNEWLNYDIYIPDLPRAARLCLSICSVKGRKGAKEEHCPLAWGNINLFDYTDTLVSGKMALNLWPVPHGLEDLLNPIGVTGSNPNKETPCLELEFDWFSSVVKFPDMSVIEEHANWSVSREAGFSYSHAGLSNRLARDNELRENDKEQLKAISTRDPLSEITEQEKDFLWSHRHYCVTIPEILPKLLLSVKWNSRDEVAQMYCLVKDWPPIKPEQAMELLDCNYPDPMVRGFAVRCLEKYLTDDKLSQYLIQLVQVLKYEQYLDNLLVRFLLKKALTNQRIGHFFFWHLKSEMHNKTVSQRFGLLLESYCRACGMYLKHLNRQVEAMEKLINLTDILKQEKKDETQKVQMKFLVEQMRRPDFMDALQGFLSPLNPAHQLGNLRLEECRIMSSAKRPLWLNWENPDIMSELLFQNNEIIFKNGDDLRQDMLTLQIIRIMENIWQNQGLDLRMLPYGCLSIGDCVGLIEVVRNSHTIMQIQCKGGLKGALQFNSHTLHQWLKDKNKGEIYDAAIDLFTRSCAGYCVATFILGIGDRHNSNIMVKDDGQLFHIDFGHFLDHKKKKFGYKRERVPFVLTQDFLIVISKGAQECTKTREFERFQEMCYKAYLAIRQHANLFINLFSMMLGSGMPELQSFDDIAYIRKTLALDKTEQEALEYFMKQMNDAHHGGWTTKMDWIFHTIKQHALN
Settings: not given
As for the experimental part:
Inhibition of PI3K enzyme activity is measured in a microtiter plate-based fluorescence polarization (FP) assay.
Turning to `COC[C@H]1OC(=O)C(=CN2CCC(c3ccccc3)CC2)C2C(=O)C(=O)C3=C([C@H](OC(C)=O)C[C@@]4(C)C3CC[C@@H]4O)[C@]21C` (stereo partly drawn) [(2R,3S,6E,14S,15S,17R)-8,14-dihydroxy-3-(methoxymethyl)-2,15-dimethyl-5,9-dioxo-6-[(4-phenylpiperidin-1-yl)methylidene]-4-oxatetracyclo[8.7.0.0^{2,7}.0^{11,15}]heptadeca-1(10),7-dien-17-yl acetate], inhibition was half-maximal at 172 nM (IC50).

In the case of `COC[C@H]1OC(=O)C(=CN(C)N2CCC(C)C2)C2C(=O)C(=O)C3=C([C@H](OC(C)=O)C[C@@]4(C)C3CC[C@@H]4O)[C@]21C` (stereo partly drawn) [(2R,3S,6E,14S,15S,17R)-8,14-dihydroxy-3-(methoxymethyl)-2,15-dimethyl-6-{[methyl(3-methylpyrrolidin-1-yl)amino]methylidene}-5,9-dioxo-4-oxatetracyclo[8.7.0.0^{2,7}.0^{11,15}]heptadeca-1(10),7-dien-17-yl acetate], half-maximal inhibition (IC50) required 127 nM. Same read-out and setting: to `COC[C@H]1OC(=O)C(=CN2CCC(=O)CC2)C2C(=O)C(=O)C3=C([C@H](OC(C)=O)C[C@@]4(C)C3CC[C@@H]4O)[C@]21C` (stereo partly drawn) [(2R,3S,6E,14S,15S,17R)-8,14-dihydroxy-3-(methoxymethyl)-2,15-dimethyl-5,9-dioxo-6-[(4-oxopiperidin-1-yl)methylidene]-4-oxatetracyclo[8.7.0.0^{2,7}.0^{11,15}]heptadeca-1(10),7-dien-17-yl acetate] belongs 60 nM; to `COC[C@H]1OC(=O)C(=CN2CCOCC2)C2C(=O)C(=O)C3=C([C@H](OC(C)=O)C[C@@]4(C)C3CC[C@@H]4O)[C@]21C` (stereo partly drawn) [(2R,3S,6E,14S,15S,17R)-8,14-dihydroxy-3-(methoxymethyl)-2,15-dimethyl-6-(morpholin-4-ylmethylidene)-5,9-dioxo-4-oxatetracyclo[8.7.0.0^{2,7}.0^{11,15}]heptadeca-1(10),7-dien-17-yl acetate], 37 nM.

The assay is the same for the next values; noted with them: pH 7.5; 22 °C.
As to `COC[C@H]1OC(=O)C(=CN(CCN(C)C)C(C)(C)C)C2C(=O)C(=O)C3=C([C@H](OC(C)=O)C[C@@]4(C)C3CC[C@@H]4O)[C@]21C` (stereo partly drawn) [(2R,3S,6Z,14S,15S,17R)-6-({tert-butyl[2-(dimethylamino)ethyl]amino}methylidene)-8,14-dihydroxy-3-(methoxymethyl)-2,15-dimethyl-5,9-dioxo-4-oxatetracyclo[8.7.0.0^{2,7}.0^{11,15}]heptadeca-1(10),7-dien-17-yl acetate], the IC50 (as a rule, the midpoint of a concentration-inhibition curve) came out at 9.6 nM. On the same count and under the same terms, the value for `COC[C@H]1OC(=O)C(=CN(CCO)C(C)(C)C)C2C(=O)C(=O)C3=C([C@H](OC(C)=O)C[C@@]4(C)C3CC[C@@H]4O)[C@]21C` (stereo partly drawn) [(2R,3S,6Z,14S,15S,17R)-6-{[tert-butyl(2-hydroxyethyl)amino]methylidene}-8,14-dihydroxy-3-(methoxymethyl)-2,15-dimethyl-5,9-dioxo-4-oxatetracyclo[8.7.0.0^{2,7}.0^{11,15}]heptadeca-1(10),7-dien-17-yl acetate] was 1110 nM; that for `COC[C@H]1OC(=O)c2coc3c2[C@@]1(C)C1=C(C3=O)C2CC[C@H](O)[C@@]2(C)C[C@H]1OC(C)=O` (stereo partly drawn) [(1R,3R,5S,6S,18S)-6-hydroxy-18-(methoxymethyl)-1,5-dimethyl-11,16-dioxo-13,17-dioxapentacyclo[10.6.1.0^{2,10}.0^{5,9}.0^{15,19}]nonadeca-2(10),12(19),14-trien-3-yl acetate] was 2.7 nM; that for `COC[C@H]1OC(=O)C(=CN(C)CCCN(C)C)C2C(=O)C(=O)C3=C([C@H](O)C[C@@]4(C)C3CC[C@@H]4O)[C@]21C` (stereo partly drawn) [(2R,3S,6Z,14S,15S,17R)-6-({[3-(dimethylamino)propyl](methyl)amino}methylidene)-8,14,17-trihydroxy-3-(methoxymethyl)-2,15-dimethyl-4-oxatetracyclo[8.7.0.0^{2,7}.0^{11,15}]heptadeca-1(10),7-diene-5,9-dione] was 638 nM.
